Assay results published in patent publication US20250357519A1, “APPLICATIONS OF O2-INSENSITIVE FORMATE DEHYDROGENASE” (UNIVERSITY OF MARYLAND, BALTIMORE, priority 2022, published 2025).

Experiments:
DvH-FDH2 = DvH-FDH2 (Nitratidesulfovibrio vulgaris (Desulfovibrio vulgaris Hildenborough), UniProt Q728X0); format: biochemical
[1] = target: T1, Desulfovibrio vulgaris Hildenborough (DvH) FDH2, recombinant Strep-tag II-tagged (FDH2^Rec), large subunit DVU2482 SEQ ID NO: 31, small subunit DVU2481 SEQ ID N (Nitratidesulfovibrio vulgaris, UniProt Q728X0); test: Inhibition of PES/DCPIP reduction by DvH-FDH2; format: biochemical; parameters: some rows (FDH2^WT, da Silva et al.) are the native enzyme; conditions: anaerobic and aerobic
T1 sequence (Q728X0 36-1003): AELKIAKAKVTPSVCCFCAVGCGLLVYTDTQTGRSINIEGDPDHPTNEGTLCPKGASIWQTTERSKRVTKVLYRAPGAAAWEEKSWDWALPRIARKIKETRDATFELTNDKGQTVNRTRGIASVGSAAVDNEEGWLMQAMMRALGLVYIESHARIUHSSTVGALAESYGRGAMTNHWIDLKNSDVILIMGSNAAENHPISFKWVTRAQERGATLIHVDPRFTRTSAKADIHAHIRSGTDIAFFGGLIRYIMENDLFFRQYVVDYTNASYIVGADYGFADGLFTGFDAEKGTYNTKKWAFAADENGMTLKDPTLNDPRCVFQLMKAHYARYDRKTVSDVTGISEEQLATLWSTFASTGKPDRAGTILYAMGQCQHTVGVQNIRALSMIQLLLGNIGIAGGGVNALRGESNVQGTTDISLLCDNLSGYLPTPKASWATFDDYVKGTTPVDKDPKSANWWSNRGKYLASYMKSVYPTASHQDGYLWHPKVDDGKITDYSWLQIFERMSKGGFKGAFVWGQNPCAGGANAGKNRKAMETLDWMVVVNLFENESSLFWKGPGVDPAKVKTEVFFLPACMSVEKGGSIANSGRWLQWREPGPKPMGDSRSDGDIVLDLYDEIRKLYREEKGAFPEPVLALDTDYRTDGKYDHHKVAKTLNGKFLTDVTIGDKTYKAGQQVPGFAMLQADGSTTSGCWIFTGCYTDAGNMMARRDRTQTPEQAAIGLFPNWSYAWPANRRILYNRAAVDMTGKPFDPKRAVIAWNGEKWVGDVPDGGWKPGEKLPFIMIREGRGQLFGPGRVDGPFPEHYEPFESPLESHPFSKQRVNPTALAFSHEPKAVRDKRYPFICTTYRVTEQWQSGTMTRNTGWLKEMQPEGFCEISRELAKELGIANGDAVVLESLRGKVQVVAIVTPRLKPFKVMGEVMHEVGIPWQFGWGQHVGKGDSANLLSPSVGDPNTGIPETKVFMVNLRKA
T1 sequence (Q728X1 1-260 partner): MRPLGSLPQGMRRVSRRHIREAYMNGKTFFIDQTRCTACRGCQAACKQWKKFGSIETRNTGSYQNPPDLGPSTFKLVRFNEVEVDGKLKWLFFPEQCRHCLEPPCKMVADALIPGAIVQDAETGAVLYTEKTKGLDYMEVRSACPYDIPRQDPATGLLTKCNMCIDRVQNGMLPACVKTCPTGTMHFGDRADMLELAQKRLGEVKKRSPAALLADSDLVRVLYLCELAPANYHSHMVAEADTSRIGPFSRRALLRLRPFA
Experimental: FIG. 22. Effect of sodium azide on PES/DCPIP reduction by DvH-FDH2. Panel (A) illustrates raw anaerobic kinetics, Panel (B) illustrates data from Panel (A) converted to reduced DCPIP concentration, Panel (C) illustrates 4-parameter sigmoidal fit of Panel (B), Panel (D) illustrates aerobic raw traces, Panel (E) illustrates data from Panel (D) converted to reduced DCPIP concentration, and Panel (F) illustrates a 4-parameter sigmoidal fit of […]. IC50 values were in the range of 0.8 mM.
FIG. 23. Effect of sodium nitrate on PES/DCPTP reduction by DvH-FDH2. Panel (A) illustrates raw anaerobic kinetics, Panel (B) illustrates data from Panel (A) converted to reduced DCPTP concentration, Panel (C) illustrates raw aerobic kinetics, and Panel (D) illustrates data from Panel (C) converted to reduced DCPTP concentration.
To test this hypothesis, activity assays were independently pursued with the PES/DCPIP pair. As has been observed for other dehydrogenases^91, PES served as an efficient electron acceptor for DvH-FDH2 (FIG. 19(A)). […]
In this dye-linked assay, PES (Em,7=+65 mV) serves as the primary electron acceptor. […] Assays were performed using a UV-2600i spectrophotometer (Shimadzu Life Sciences) equipped with T2 Peltier/stirrer accessory (Quantum) and monitored at 600 nm. […]

Structure (SMILES): O=[N+]([O-])[O-].[Na+] [nitrate, sodium nitrate]
- Inhibition of DvH-FDH2 compared with azide (DvH-FDH2): far less effective
- inhibition relative to azide [1]: far less effective
